Entries after “also recorded” stand apart in the source; their conditions may differ.
Columns and labels:
BT549 = assay: mammosphere-forming efficiency (MSFE) assay; assay type: cell-based, human; conditions: 10 nM and 1 μM, after a single treatment dose
Procedure: (§1) The bioinformatics systems-based methods described herein also identified a further subset of ten drugs that were subsequently tested in vitro and in vivo for their ability to inhibit breast TICs. These in silico results were first confirmed by in vitro studies that evaluated the effects of these repositioned drugs on mammosphere-forming efficiency. […] Next, limiting dilution transplantation assays were performed, whereupon SUM159 cells were treated with […] overnight and then transplanted the next day 200,000 cells/mouse (single sided).

SUM159 = assay: mammosphere-forming efficiency (MSFE) assay; assay type: cell-based, human; conditions: 10 nM and 1 μM, after a single treatment dose
Procedure: as §1

SUM159 cells = assay: limiting dilution transplantation assay; assay type: in vivo; conditions: SUM159 cells treated overnight, transplanted 200,000 cells/mouse; vehicle control 9 of 12
Procedure: as §1

human breast cancer TICs [1] = assay: mammosphere formation efficiency assay on triple-negative cancer cell lines; assay type: cell-based; conditions: at least two triple-negative cancer cell lines
Description: (§2) Thus, the proposed drug-repositioning platform consists of CSB model, bioinformatics software, and drug information databases. Among the twenty-one drug candidates identified in this study, three drugs, i.e., sunitinib (Sutent®, Pfizer Oncology, New York, N.Y., USA), dasatinib (Sprycel®, Bristol-Myers Squibb, Princeton, N.J., USA) and chloroquine (Aralen®, sanofi-aventis, US, LLC, Bridgewater, N.J., USA) were further analyzed for their in vitro and in vivo effects on human breast cancer TICs, and in murine xenograft models. […] As a result of this finding, dasatinib is now currently in Phase II clinical trials for advanced breast cancer to assess the efficacy of this drug for inhibiting TICs.

human breast cancer TICs [2] = assay: dilute transplantation assay in murine xenograft models; assay type: in vivo
Description: as §2

breast TICs = assay: inhibition of breast TICs in vitro and in vivo (FIG. 3, human breast cancer xenograft mammosphere formation efficiency); assay type: cell-based
MCF7 = conditions: cited from earlier work; for cell growth: considered dosages (<10 μM); for cell death / apoptosis: higher dosages, MCF7
[3] = system: H226, human non-small cell lung cancer (NSCLC); assay: Cell proliferation assay (CellTiter 96 AQueous One Solution); assay type: cell-based
Procedure: (§3) Five tumor cell lines were used in these studies: HT-29, human colorectal adenocarcinoma; H69, human small cell lung cancer (SCLC); H226, human non-small cell lung cancer (NSCLC) (squamous carcinoma); LNCaP, human prostate carcinoma; and U87-luc glioblastoma cell line. H69, H226, and LNCaP cells were grown in American Type Culture Collection (ATCC)-formulated RPMI-1640 Medium (ATCC, cat#30-2001; […]) supplemented with 10% fetal bovine serum (FBS) and 1% penicillin/streptomycin (Invitrogen, Carlsbad, Calif., USA). HT-29 cells were cultured in ATCC-formulated McCoy's 5a Medium (Modified) (ATCC, cat#30-2007). […]
(§4) Cell proliferation was analyzed using CellTiter 96 AQueous One Solution Cell Proliferation Assay (Promega, Madison, Wis., USA) according to the manufacturer's instructions. […] After 3-hrs' incubation, absorbance at 490 nm was measured using the FLUOstar™ Omega Microplate Reader (BMG LABTECH, Cary, N.C., USA). Background absorbance (490 nm) was corrected by subtracting the average 490 nm absorbance of the “no cell” control wells from absorbance values obtained for each of the test wells. The proliferative ratio (% surviving cells) in each sample was calculated by dividing the corrected absorbance value of treated cells by that of control cells with no drug treatment. The results were expressed as mean with standard errors from two independent studies.

[4] = system: HT-29, human colorectal adenocarcinoma; assay: as above; assay type: cell-based; conditions: colorectal cancer cell line HT-29; 48 hours of treatment
Procedure: as §3, §4

SMILES | cell growth (MCF7) | cell death / apoptosis (MCF7) | other results
CCN(CC)CCCC(C)Nc1ccnc2cc(Cl)ccc12 (stereo not shown) [chloroquine] | – | – | MSFE (mammosphere-forming efficiency) (BT549): dramatic reduction; MSFE (mammosphere-forming efficiency) (SUM159): dramatic reduction; tumor initiation rate (xenografts growing within 10 weeks) (SUM159 cells): 1 of 12; anti-TICs effects (mammosphere formation efficiency assay) (human breast cancer TICs [1]): anti-TICs effects; anti-cancer effects in animal models (dilute transplantation assay) (human breast cancer TICs [2]): anti-cancer effects; inhibiting breast TICs (breast TICs): effective in inhibiting breast TICs
C[C@]12CC[C@@H]3c4ccc(O)cc4C[C@@H](CCCCCCCCC[S+]([O-])CCCC(F)(F)C(F)(F)F)[C@H]3[C@@H]1CC[C@@H]2O (stereo partly shown) [fulvestrant] | significantly inhibited cell growth | does not induce any cell death; also recorded: did not induce the cell death | –
COc1cc2ncnc(Nc3ccc(F)c(Cl)c3)c2cc1OCCCN1CCOCC1 [gefitinib] | – | – | effect on cell proliferation [3]: positive effects; effect on cell proliferation [4]: positive effects
CC(=O)O[C@H]1C(=O)[C@@]2(C)[C@H]([C@H](OC(=O)c3ccccc3)[C@]3(O)C[C@H](OC(=O)[C@H](O)[C@@H](NC(=O)c4ccccc4)c4ccccc4)C(C)=C1C3(C)C)[C@]1(OC(C)=O)CO[C@@H]1C[C@@H]2O [paclitaxel] | significantly inhibited cell growth | induce apoptosis at higher dosages; also recorded: some experiments also cause the cell death | –
O=C(c1ccc(OCCN2CCCCC2)cc1)c1c(-c2ccc(O)cc2)sc2cc(O)ccc12 [raloxifene] | significantly inhibited cell growth | induce apoptosis at higher dosages; also recorded: induced cell death at higher dosages | –
CC/C(=C(\c1ccccc1)c1ccc(OCCN(C)C)cc1)c1ccccc1 [tamoxifen] | significantly inhibited cell growth | induce apoptosis at higher dosages; also recorded: induced cell death at higher dosages | –

— patent publication US20120296090A1, “Drug Repositioning Methods For Targeting Breast Tumor Initiating Cells” (The Methodist Hospital Research Institute, priority 2011, published 2012)
